From PubChem BioAssay (NCI)
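Five concentrations, 48 hours, 96-well plates. TGI marks complete inhibition of growth.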

How the values were obtained:
Experiment in all cases: NCI tumour cell line growth inhibition, 48 h
[1] = system: IGROV1 ovarian
[2] = system: RXF 393 renal
[3] = system: MOLT-4 leukemia
[4] = system: EKVX NSCLC
[5] = system: UACC-62 melanoma
[6] = system: SR leukemia
[7] = system: UACC-257 melanoma
[8] = system: U251 CNS
[9] = system: SN12C renal
[10] = system: SF-268 CNS
[11] = system: CAKI-1 renal
[12] = system: UO-31 renal
[13] = system: SNB-78 CNS
[14] = system: SNB-19 CNS
[15] = system: RPMI-8226 leukemia
[16] = system: SK-MEL-28 melanoma
[17] = system: HT29 colon
[18] = system: COLO 205 colon
[19] = system: CCRF-CEM leukemia
[20] = system: TK-10 renal
[21] = system: SF-295 CNS
[22] = system: OVCAR-8 ovarian
[23] = system: SF-539 CNS
[24] = system: M14 melanoma
[25] = system: XF 498 CNS
[26] = system: KM20L2 colon
[27] = system: NCI-H226 lung
[28] = system: A498 renal
[29] = system: OVCAR-5 ovarian
[30] = system: K-562 leukemia
[31] = system: HOP-92 NSCLC
[32] = system: 786-0 renal
[33] = system: SW-620 colon
[34] = system: NCI-H23 lung
[35] = system: KM12 colon
[36] = system: LOX IMVI melanoma
[37] = system: OVCAR-4 ovarian
[38] = system: SNB-75 CNS
[39] = system: SK-MEL-5 melanoma
[40] = system: A549 NSCLC
[41] = system: SK-OV-3 ovarian
[42] = system: HL-60(TB) leukemia
[43] = system: HCT-116 colon
[44] = system: NCI-H522 lung
[45] = system: LXFL 529 NSCLC
[46] = system: DMS 114 small cell lung
[47] = system: M19-MEL melanoma
[48] = system: ACHN renal
[49] = system: NCI-H460 lung
[50] = system: SK-MEL-2 melanoma
[51] = system: HCT-15 colon
[52] = system: DMS 273 small cell lung
[53] = system: HCC-2998 colon
[54] = system: MALME-3M melanoma
[55] = system: HOP-18 NSCLC
[56] = system: OVCAR-3 ovarian
[57] = system: DLD-1 colon

Cc1nc2c(s/c(=N\N)n2-c2ccccc2)c(=O)n1C
TGI [1]: > 100 µM | TGI [2]: > 100 µM | TGI [3]: > 100 µM | TGI [4]: > 100 µM | TGI [5]: > 100 µM | TGI [6]: > 100 µM | TGI [7]: > 100 µM | TGI [8]: > 100 µM | TGI [9]: > 100 µM | TGI [10]: > 100 µM | TGI [11]: > 100 µM | TGI [12]: > 100 µM | TGI [13]: > 100 µM | TGI [14]: > 100 µM | TGI [15]: > 100 µM | TGI [16]: > 100 µM | TGI [17]: > 100 µM | TGI [18]: > 100 µM | TGI [19]: > 100 µM | TGI [20]: > 100 µM | TGI [21]: > 100 µM | TGI [22]: > 100 µM | TGI [23]: > 100 µM | TGI [24]: > 100 µM | TGI [25]: > 100 µM | TGI [26]: > 100 µM | TGI [27]: > 100 µM | TGI [28]: > 100 µM | TGI [29]: > 100 µM | TGI [30]: > 100 µM | TGI [31]: > 100 µM | TGI [32]: > 100 µM | TGI [33]: > 100 µM | TGI [34]: > 100 µM | TGI [35]: > 100 µM | TGI [36]: > 100 µM | TGI [37]: > 100 µM | TGI [38]: > 100 µM | TGI [39]: > 100 µM | TGI [40]: > 100 µM | TGI [41]: > 100 µM | TGI [42]: > 100 µM | TGI [43]: > 100 µM | TGI [44]: > 100 µM | TGI [45]: > 100 µM | TGI [46]: > 100 µM | TGI [47]: > 100 µM | TGI [48]: > 100 µM | TGI [49]: > 100 µM | TGI [50]: > 100 µM | TGI [51]: > 100 µM | TGI [52]: > 100 µM | TGI [53]: > 100 µM

CCC12C=CCN3CCC4(C(=C(C(=O)OC)C1)Nc1ccccc14)[C@H]32 (some centres undefined)
TGI [1]: > 100 µM | TGI [2]: 56.7 µM | TGI [3]: 93 µM | TGI [4]: > 100 µM | TGI [5]: 67.6 µM | TGI [6]: 34.8 µM | TGI [7]: > 100 µM | TGI [54]: > 100 µM | TGI [10]: 45.4 µM | TGI [11]: > 100 µM | TGI [12]: > 100 µM | TGI [55]: > 100 µM | TGI [14]: 75 µM | TGI [16]: > 100 µM | TGI [17]: 46.8 µM | TGI [18]: 32.3 µM | TGI [19]: 79.5 µM | TGI [20]: > 100 µM | TGI [21]: 92.6 µM | TGI [23]: 47.5 µM | TGI [24]: 50.8 µM | TGI [26]: 47.6 µM | TGI [27]: 86.7 µM | TGI [28]: 79.4 µM | TGI [29]: > 100 µM | TGI [30]: 52.5 µM | TGI [31]: 87.7 µM | TGI [32]: 82 µM | TGI [33]: 86 µM | TGI [34]: 93.6 µM | TGI [35]: > 100 µM | TGI [36]: 53.4 µM | TGI [56]: > 100 µM | TGI [37]: > 100 µM | TGI [38]: 69 µM | TGI [39]: > 100 µM | TGI [40]: > 100 µM | TGI [41]: 49.7 µM | TGI [42]: 88.7 µM | TGI [43]: > 100 µM | TGI [44]: 49.4 µM | TGI [57]: > 100 µM | TGI [45]: > 100 µM | TGI [46]: 49.5 µM | TGI [47]: > 100 µM | TGI [48]: > 100 µM | TGI [49]: 41.9 µM | TGI [50]: 52 µM | TGI [51]: > 100 µM | TGI [52]: 42.8 µM | TGI [53]: > 100 µM
